Among the data in patent US20070049593A1 (priority 2004, published 2007) are IC50 values, retold here.

The assay concerns the target T1, HCV polymerase (Hepatitis C virus genotype 1b, UniProt P26663).
T1 construct: a region encoding NS5B (J Virol 1991 March, 65(3), 1105-13, 544 amino acids after deletion of 47 amino acids on the C-terminal); 6xHis (C); made in house; host or cells: Escherichia coli
Kind of assay: biochemical. Set-up: species or system HCV BK strain. A digest of the protocol: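 Recombinant HCV BK-strain NS5B (C-terminal 47 aa deleted, His6-tagged, E. coli), 0.5 μg/ml, run with 5 μg/ml in vitro-transcribed RNA template (polyU/3′X), ATP/GTP/CTP 50 μM, UTP 2 μM plus [3H]UTP, pH 7.5, 25° C, 90 min. TCA-precipitated RNA counted by scintillation; IC50 from activity with vs without compound.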

Where only a bound is given, the exact number is not on record here.

T1 sequence (P26663 2420-2963): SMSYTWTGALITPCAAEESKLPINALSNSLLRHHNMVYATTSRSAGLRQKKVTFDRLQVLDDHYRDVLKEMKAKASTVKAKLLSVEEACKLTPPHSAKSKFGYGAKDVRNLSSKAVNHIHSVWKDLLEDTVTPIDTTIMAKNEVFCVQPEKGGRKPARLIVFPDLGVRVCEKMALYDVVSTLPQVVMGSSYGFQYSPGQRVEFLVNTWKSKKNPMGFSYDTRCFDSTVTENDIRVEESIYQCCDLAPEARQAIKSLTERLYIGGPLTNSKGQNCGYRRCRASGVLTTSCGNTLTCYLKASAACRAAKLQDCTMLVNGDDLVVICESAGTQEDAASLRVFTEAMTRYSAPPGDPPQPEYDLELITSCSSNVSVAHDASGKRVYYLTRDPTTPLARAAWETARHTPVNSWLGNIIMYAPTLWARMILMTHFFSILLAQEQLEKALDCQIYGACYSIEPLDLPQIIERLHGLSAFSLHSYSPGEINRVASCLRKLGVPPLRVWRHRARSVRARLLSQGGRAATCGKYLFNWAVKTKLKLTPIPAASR

The compound `COc1ccc2c(c1)OCCn1c-2c(C2CCCCC2)c2ccc(C(=O)NC3(c4nc5ccc(C(=O)O)cc5[nH]4)CCOCC3)cc21` [Example 2-409, 2-{4-[(12-cyclohexyl-3-methoxy-6,7-dihydro-5-oxa-7a-azadibenzo[a,e]azulene-9-carbonyl)amino]tetrahydropyran-4-yl]-3H-benzimidazole-5-carboxylic acid] yielded an IC50 below 100 nM.

In turn, `COc1ccc2c(c1)OCCn1c-2c(C2CCCCC2)c2ccc(C(=O)N[C@@H](Cc3ccc(NC(=O)OCc4ccccc4)cc3)c3csc(C)n3)cc21` [Example 2-410, benzyl (4-[(S)-2-[(12-cyclohexyl-3-methoxy-6,7-dihydro-5-oxa-7a-azadibenzo[a,e]azulene-9-carbonyl)amino]-2-(2-methylthiazol-4-yl)ethyl]phenyl}carbamate] came in with an IC50 below 100 nM. Take `COc1ccc2c(c1)OCCn1c-2c(C2CCCCC2)c2ccc(C(=O)NC(C)(C)c3nc4cc(/C=C/C(=O)O)ccc4[nH]3)cc21` [Example 2-411, (E)-3-(2-{1-[(12-cyclohexyl-3-methoxy-6,7-dihydro-5-oxa-7a-azadibenzo[a,e]azulene-9-carbonyl)amino]-1-methylethyl}-1H-benzimidazol-5-yl)acrylic acid]: the IC50 is below 100 nM. `COc1ccc2c(c1)OCCn1c-2c(C2CCCCC2)c2ccc(C(=O)NC(C)(C)c3nc4cc(CCC(=O)O)ccc4[nH]3)cc21` [Example 2-412, 3-(2-{1-[(12-cyclohexyl-3-methoxy-6,7-dihydro-5-oxa-7a-azadibenzo[a,e]azulene-9-carbonyl)amino]-1-methylethyl}-1H-benzimidazol-5-yl)propionic acid] had an IC50 below 100 nM. The same measure for `COc1ccc2c(c1)OCCn1c-2c(C2CCCCC2)c2ccc(C(=O)NC3(c4nc5cc(CO)c(OC)cc5[nH]4)CCC3)cc21` [Example 2-413, N-[1-(5-hydroxymethyl-6-methoxy-1H-benzimidazol-2-yl)cyclobutyl]-12-cyclohexyl-3-methoxy-6,7-dihydro-5-oxa-7a-azadibenzo[a,e]azulene-9-carboxamide]: below 100 nM; for `COc1ccc2c(c1)OCCn1c-2c(C2CCCCC2)c2ccc(C(=O)N[C@@H](Cc3ccc(N)cc3)c3csc(C)n3)cc21` [Example 2-414, N—[(S)-2-(4-aminophenyl)-1-(2-methylthiazol-4-yl)ethyl]-12-cyclohexyl-3-methoxy-6,7-dihydro-5-oxa-7a-azadibenzo[a,e]azulene-9-carboxamide]: below 100 nM. Under `COC(=O)Nc1ccc(C[C@H](NC(=O)c2ccc3c(C4CCCCC4)c4n(c3c2)CCOc2cc(OC)ccc2-4)c2csc(C)n2)cc1` [Example 2-415, methyl (4-[(S)-2-[(12-cyclohexyl-3-methoxy-6,7-dihydro-5-oxa-7a-azadibenzo[a,e]azulene-9-carbonyl)amino]-2-(2-methylthiazol-4-yl)ethyl]phenyl}carbamate] stands below 100 nM; under `COc1ccc2c(c1)OCCn1c-2c(C2CCCCC2)c2ccc(C(=O)N[C@@H](Cc3ccc(O)cc3)C(=O)NC(C)(C)C(=O)O)cc21` [Example 2-416, 2-[(S)-2-[(12-cyclohexyl-3-methoxy-6,7-dihydro-5-oxa-7a-azadibenzo[a,e]azulene-9-carbonyl)amino]-3-(4-hydroxyphenyl)propionylamino]-2-methylpropionic acid], below 100 nM. In turn, `COC(=O)COc1ccc2[nH]cc(C[C@H](NC(=O)c3ccc4c(C5CCCCC5)c5n(c4c3)CCOc3cc(OC)ccc3-5)c3csc(C)n3)c2c1` [Example 2-417, methyl {3-[(S)-2-[(12-cyclohexyl-3-methoxy-6,7-dihydro-5-oxa-7a-azadibenzo[a,e]azulene-9-carbonyl)amino]-2-(2-methylthiazol-4-yl)ethyl]-1H-indol-5-yloxy}acetate] registered an IC50 below 100 nM. The same measure for `COc1ccc2c(c1)OCCn1c-2c(C2CCCCC2)c2ccc(C(=O)NC(C)(C)c3nc4ccc(C(=O)N5CCN(C)CC5)cc4[nH]3)cc21` [Example 2-418, N-(1-methyl-1-[6-(4-methylpiperazine-1-carbonyl)-1H-benzimidazol-2-yl]ethyl}-12-cyclohexyl-3-methoxy-6,7-dihydro-5-oxa-7a-azadibenzo[a,e]azulene-9-carboxamide]: below 100 nM; for `COc1ccc2c(c1)OCCn1c-2c(C2CCCCC2)c2ccc(C(=O)NC(C)(C)c3nc4ccc(C(=O)N5CCOCC5)cc4[nH]3)cc21` [Example 2-419, N-(1-methyl-1-[6-(morpholine-4-carbonyl)-1H-benzimidazol-2-yl]ethyl}-12-cyclohexyl-3-methoxy-6,7-dihydro-5-oxa-7a-azadibenzo[a,e]azulene-9-carboxamide]: below 100 nM; for `COc1ccc2c(c1)OCCn1c-2c(C2CCCCC2)c2ccc(C(=O)NC3(c4nc5ccc(OCc6ccccc6)cc5[nH]4)CCC3)cc21` [Example 2-420, N-[1-(6-benzyloxy-1H-benzimidazol-2-yl)cyclobutyl]-12-cyclohexyl-3-methoxy-6,7-dihydro-5-oxa-7a-azadibenzo[a,e]azulene-9-carboxamide]: below 100 nM. The same measure for `COc1ccc2c(c1)OCCn1c-2c(C2CCCCC2)c2ccc(C(=O)N[C@@H](Cc3c[nH]c4ccc(OCCO)cc34)c3csc(C)n3)cc21` [Example 2-421, N—[(S)-2-[5-(2-hydroxyethoxy)-1H-indol-3-yl]-1-(2-methylthiazol-4-yl)ethyl]-12-cyclohexyl-3-methoxy-6,7-dihydro-5-oxa-7a-azadibenzo[a,e]azulene-9-carboxamide]: below 100 nM. The same measure for `COc1ccc2c(c1)OCCn1c-2c(C2CCCCC2)c2ccc(C(=O)NC(C)(C)c3ccc(/C=C/C(=O)O)cc3)cc21` [Example 2-422, (E)-3-(4-{1-[(12-cyclohexyl-3-methoxy-6,7-dihydro-5-oxa-7a-azadibenzo[a,e]azulene-9-carbonyl)amino]-1-methylethyl}phenyl)acrylic acid]: below 100 nM. The compound `COc1ccc2c(c1)OCCn1c-2c(C2CCCCC2)c2ccc(C(=O)NC(C)(C)c3ccc(CCC(=O)O)cc3)cc21` [Example 2-423, 3-(4-{1-[(12-cyclohexyl-3-methoxy-6,7-dihydro-5-oxa-7a-azadibenzo[a,e]azulene-9-carbonyl)amino]-1-methylethyl}phenyl)propionic acid] displayed an IC50 below 100 nM.

In turn, `COCCCOc1ccc(C[C@H](NC(=O)c2ccc3c(C4CCCCC4)c4n(c3c2)CCOc2cc(OC)ccc2-4)C(=O)OC)cc1` [Example 2-424, methyl (S)-2-[(12-cyclohexyl-3-methoxy-6,7-dihydro-5-oxa-7a-azadibenzo[a,e]azulene-9-carbonyl)amino]-3-[4-(3-methoxypropoxy)phenyl]propionate] came in with an IC50 below 100 nM. Under `COc1ccc2c(c1)OCCn1c-2c(C2CCCCC2)c2ccc(C(=O)N[C@@H](Cc3ccc(NC(=O)N(C)C)cc3)C(=O)O)cc21` [Example 2-425, (S)-2-[(12-cyclohexyl-3-methoxy-6,7-dihydro-5-oxa-7a-azadibenzo[a,e]azulene-9-carbonyl)amino]-3-[4-(3,3-dimethylureido)phenyl]propionic acid] stands below 100 nM. The same measure for `CONC(=O)[C@H](Cc1ccc(O)cc1)NC(=O)c1ccc2c(C3CCCCC3)c3n(c2c1)CCOc1cc(OC)ccc1-3` [Example 2-426, N—[(S)-2-(4-hydroxyphenyl)-1-(methoxycarbamoyl)ethyl]-12-cyclohexyl-3-methoxy-6,7-dihydro-5-oxa-7a-azadibenzo[a,e]azulene-9-carboxamide]: below 100 nM. The same measure for `COc1ccc2c(c1)OCCn1c-2c(C2CCCCC2)c2ccc(C(=O)N[C@@H](Cc3ccc(O)cc3)C(=O)N(C)OC)cc21` [Example 2-427, N—[(S)-2-(4-hydroxyphenyl)-1-(N-methoxy-N-methylcarbamoyl)ethyl]-12-cyclohexyl-3-methoxy-6,7-dihydro-5-oxa-7a-azadibenzo[a,e]azulene-9-carboxamide]: below 100 nM; for `COc1ccc2c(c1)OCCn1c-2c(C2CCCCC2)c2ccc(C(=O)N[C@@H](Cc3ccc(OCc4ccccc4)cc3)c3noc(=O)[nH]3)cc21` [Example 2-428, N—[(S)-2-(4-benzyloxyphenyl)-1-(5-oxo-4,5-dihydro-1,2,4-oxadiazol-3-yl)ethyl]-12-cyclohexyl-3-methoxy-6,7-dihydro-5-oxa-7a-azadibenzo[a,e]azulene-9-carboxamide]: below 100 nM. `COc1ccc2c(c1)OCCn1c-2c(C2CCCCC2)c2ccc(C(=O)N[C@@H](Cc3ccc(O)cc3)c3noc(=O)[nH]3)cc21` [Example 2-429, N—[(S)-2-(4-hydroxyphenyl)-1-(5-oxo-4,5-dihydro-1,2,4-oxadiazol-3-yl)ethyl]-12-cyclohexyl-3-methoxy-6,7-dihydro-5-oxa-7a-azadibenzo[a,e]azulene-9-carboxamide]: the IC50 was below 100 nM. Under `COc1ccc2c(c1)OCCn1c-2c(C2CCCCC2)c2ccc(C(=O)N[C@@H](Cc3ccc(OC(C)=O)cc3)c3noc(=O)[nH]3)cc21` [Example 2-430, 4-[(S)-2-[(12-cyclohexyl-3-methoxy-6,7-dihydro-5-oxa-7a-azadibenzo[a,e]azulene-9-carbonyl)amino]-2-(5-oxo-4,5-dihydro-1,2,4-oxadiazol-3-yl)ethyl]phenyl acetate] stands below 100 nM; under `COc1ccc2c(c1)OCCn1c-2c(C2CCCCC2)c2ccc(C(=O)N[C@@H](Cc3ccc(OC(C)=O)cc3)C3=NC(C)(C)C(=O)O3)cc21` [Example 2-431, 4-[(S)-2-[(12-cyclohexyl-3-methoxy-6,7-dihydro-5-oxa-7a-azadibenzo[a,e]azulene-9-carbonyl)amino]-2-(4,4-dimethyl-5-oxo-4,5-dihydrooxazol-2-yl)ethyl]phenyl acetate], below 100 nM.

The IC50 is the concentration that inhibits the measured activity by half. Read a high IC50 as a need for much substance.
